This note sets out measurements from patent publication US12559487B2, “Crosslinked optically active secondary amine derivative” (Sumitomo Pharma Co., Ltd., priority 2019, dated 2026).

Read-outs that look alike come from different tables or passages of the source.

The target in data set [1] is T1, hERG (human Ether-a-go-go Related Gene) (Homo sapiens (Human), UniProt Q12809).
The test system of data set [2] is MV4; 11 cells. Put plainly: Test 1: Test for evaluating the inhibition of cell proliferation. In kind it is cell-based. The following applies: cultured for 7 days, PrestoBlue cell viability. The method, then:
MV4; 11 cells were obtained from American Type Culture Collection (ATCC). The cells were cultured at 37° C. in the presence of 5% CO2 in RPMI 1640 medium containing 10% fetal bovine serum and 1% penicillin/streptomycin.
The cells were plated to a 96-well plate in 2000 cells/well, each test compound was added thereto to adjust the final concentration of DMSO to 0.1% of DMSO, and the cells were cultured for 7 days. After the cultivation, the cell viability was calculated with PrestoBlue™ Cell Viability Reagent (Invitrogen, A13261).

The target of data set [3] is T1, hERG (human Ether-a-go-go Related Gene). Put plainly: Test 2: Test for the hERG inhibition (QPatch HT, CHO cell strain stably expressing hERG). The following applies: for IC50: hERG IC50, hERG current, CHO cells stably expressing hERG, QPatch HT; for hERG/MV4; 11: hERG IC50 divided by MV4, 11 proliferation IC50. (The hERG channel carries a current that helps repolarise heart muscle cells.)

T1 sequence (Q12809 whole entry): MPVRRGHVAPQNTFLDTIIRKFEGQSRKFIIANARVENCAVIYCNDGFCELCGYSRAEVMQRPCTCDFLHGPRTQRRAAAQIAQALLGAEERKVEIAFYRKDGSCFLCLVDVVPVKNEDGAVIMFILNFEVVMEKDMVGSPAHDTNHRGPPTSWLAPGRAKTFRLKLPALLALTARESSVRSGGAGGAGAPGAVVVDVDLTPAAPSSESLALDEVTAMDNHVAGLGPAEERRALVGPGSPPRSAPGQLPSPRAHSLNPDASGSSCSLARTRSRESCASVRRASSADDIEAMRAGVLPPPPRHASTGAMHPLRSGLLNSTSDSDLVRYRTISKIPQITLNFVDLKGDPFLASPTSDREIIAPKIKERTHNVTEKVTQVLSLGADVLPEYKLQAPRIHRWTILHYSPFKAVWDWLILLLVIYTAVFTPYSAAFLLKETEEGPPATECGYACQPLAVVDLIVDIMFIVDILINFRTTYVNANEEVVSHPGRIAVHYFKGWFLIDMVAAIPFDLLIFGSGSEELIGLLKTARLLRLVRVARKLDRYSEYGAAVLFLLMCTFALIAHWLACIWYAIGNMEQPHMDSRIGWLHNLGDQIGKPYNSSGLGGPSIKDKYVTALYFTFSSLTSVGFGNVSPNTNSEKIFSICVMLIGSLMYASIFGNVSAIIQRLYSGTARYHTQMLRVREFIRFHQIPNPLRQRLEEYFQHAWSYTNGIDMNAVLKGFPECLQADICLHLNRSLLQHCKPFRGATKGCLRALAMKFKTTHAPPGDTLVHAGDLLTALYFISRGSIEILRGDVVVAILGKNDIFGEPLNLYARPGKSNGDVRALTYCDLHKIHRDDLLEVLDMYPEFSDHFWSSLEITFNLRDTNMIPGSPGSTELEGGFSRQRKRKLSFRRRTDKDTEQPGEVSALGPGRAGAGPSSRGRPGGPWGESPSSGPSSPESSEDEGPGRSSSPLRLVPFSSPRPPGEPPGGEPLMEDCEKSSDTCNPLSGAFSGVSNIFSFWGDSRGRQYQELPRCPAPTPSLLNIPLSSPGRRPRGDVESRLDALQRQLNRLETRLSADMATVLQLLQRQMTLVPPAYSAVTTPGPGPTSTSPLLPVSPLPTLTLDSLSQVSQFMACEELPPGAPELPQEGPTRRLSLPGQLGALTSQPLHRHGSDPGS

Take “2-(3-{1-[(3S)-2-azabicyclo[2.2.2]octane-3-carbonyl]-1,2,3,6-tetrahydropyridin-4-yl}-1H-pyrrolo[2,3-c]pyridin-1-yl)-5-fluoro-N,N-di(propan-2-yl)benzamide [Example 3]”: the “hERG/MV4; 11” value in data set [1] was found to be 489. Moreover, in data set [2], the IC50 (usually the point on the concentration scale where inhibition reaches its midpoint) was determined as 36 nM.
In the case of “2-(3-{1-[(3S)-2-azabicyclo[2.2.2]octane-3-carbonyl]azepan-4-yl}-1H-pyrrolo[2,3-c]pyridin-1-yl)-5-fluoro-N-methyl-N-(propan-2-yl)benzamide [Example 11]”, the “hERG/MV4; 11” value in data set [1] is recorded as greater than 1287. In data set [2], this compound yielded a concentration for half-maximal inhibition (IC50) of less than 30 nM.
On to “2-(3-{1-[(3S)-2-azabicyclo[2.2.2]octane-3-carbonyl]piperidin-3-yl}-1H-pyrrolo[2,3-c]pyridin-1-yl)-5-fluoro-N-methyl-N-(propan-2-yl)benzamide [Example 9]”, for which, in data set [1], the “hERG/MV4; 11” value came to 22. The compound also showed an IC50 in data set [2] of 1700 nM.
Regarding “2-(3-{1-[(3S)-2-azabicyclo[2.2.2]octane-3-carbonyl]pyrrolidin-3-yl}-1H-pyrrolo[2,3-c]pyridin-1-yl)-5-fluoro-N,N-di(propan-2-yl)benzamide [Example 8]”, in data set [1], the “hERG/MV4; 11” value was 404. The compound further had an IC50 in data set [2] of 24 nM.
On the same counts, the results for “2-(3-{1-[(3S)-2-azabicyclo[2.2.2]octane-3-carbonyl]pyrrolidin-3-yl}-1H-pyrrolo[2,3-c]pyridin-1-yl)-5-fluoro-N-methyl-N-(propan-2-yl)benzamide [Example 7]” are 775 and 52 nM.
On the same counts, the results for “2-(3-{8-[(3S)-2-azabicyclo[2.2.2]octane-3-carbonyl]-8-azabicyclo[3.2.1]octan-3-yl}-1H-pyrrolo[2,3-c]pyridin-1-yl)-5-fluoro-N-methyl-N-(propan-2-yl)benzamide [Example 20]” are 373 and 85 nM.
Regarding “2-[3-({1-[(3S)-2-azabicyclo[2.2.2]octane-3-carbonyl]azetidin-3-yl}methyl)-1H-pyrrolo[2,3-c]pyridin-1-yl]-5-fluoro-N-methyl-N-(propan-2-yl)benzamide [Example 26]”, in data set [1], the “hERG/MV4; 11” value is greater than 59. The IC50 in data set [2] worked out at 1700 nM.
As to “2-[3-({1-[(3S)-2-azabicyclo[2.2.2]octane-3-carbonyl]piperidin-4-yl}methyl)-1H-pyrrolo[2,3-c]pyridin-1-yl]-5-fluoro-N-methyl-N-(propan-2-yl)benzamide [Example 27]”, the “hERG/MV4; 11” value in data set [1] was greater than 128. Moreover, the midpoint of inhibition in data set [2], the IC50, lay at 780 nM.
On the same counts, the results for “2-[3-({1-[(3S)-2-azabicyclo[2.2.2]octane-3-carbonyl]pyrrolidin-3-yl}methyl)-1H-pyrrolo[2,3-c]pyridin-1-yl]-5-fluoro-N-methyl-N-(propan-2-yl)benzamide [Example 25]” are 334 and 29 nM.
Consider “2-[3-({4-[(3S)-2-azabicyclo[2.2.2]octane-3-carbonyl]-1,4-diazepan-1-yl}methyl)-1H-pyrrolo[2,3-c]pyridin-1-yl]-5-fluoro-N-methyl-N-(propan-2-yl)benzamide [Example 29]”, for which the “hERG/MV4; 11” value in data set [1] is reported as greater than 34. The same compound showed an IC50 in data set [2] of 2900 nM.
On the same counts, the results for “2-[3-({4-[(3S)-2-azabicyclo[2.2.2]octane-3-carbonyl]piperazin-1-yl}methyl)-1H-pyrrolo[2,3-c]pyridin-1-yl]-5-fluoro-N-methyl-N-(propan-2-yl)benzamide [Example 28]” are greater than 31 and 3200 nM.
Consider “5-fluoro-2-(3-{1-[(1S,3S,4R)-5-methylidene-2-azabicyclo[2.2.2]octane-3-carbonyl]piperidin-4-yl}-1H-pyrrolo[2,3-c]pyridin-1-yl)-N,N-di(propan-2-yl)benzamide [Example 5]”, for which the “hERG/MV4; 11” value in data set [1] is given as 589. Also, the IC50 in data set [2] stood at 35 nM.
Consider “5-fluoro-2-(3-{1-[(1S,3S,4S,5S)-5-fluoro-2-azabicyclo[2.2.2]octane-3-carbonyl]azepan-4-yl}-1H-pyrrolo[2,3-c]pyridin-1-yl)-N-methyl-N-(propan-2-yl)benzamide [Example 12]”, for which, in data set [1], the “hERG/MV4; 11” value was greater than 1050. In addition, in data set [2], the half-inhibitory concentration (IC50) was less than 30 nM.
Regarding “5-fluoro-N-methyl-2-(3-{1-[(1S,3S,4R)-5-methylidene-2-azabicyclo[2.2.1]heptane-3-carbonyl]azepan-4-yl}-1H-pyrrolo[2,3-c]pyridin-1-yl)-N-(propan-2-yl)benzamide [Example 13]”, in data set [1], the “hERG/MV4; 11” value was found to be 198. Moreover, the IC50 in data set [2] is 130 nM.
Regarding `CC(C)N(C)C(=O)c1cc(F)ccc1-n1cc(C2CCCN(C(=O)[C@H]3N[C@@H]4CC[C@H]3C4)CC2)c2ccncc21` (mixture of isomers) [Example 10, 2-(3-{1-[(1R,3S,4S)-2-azabicyclo[2.2.1]heptane-3-carbonyl]azepan-4-yl}-1H-pyrrolo[2,3-c]pyridin-1-yl)-5-fluoro-N-methyl-N-(propan-2-yl)benzamide], the IC50 in data set [3] came to 55 µM; in data set [2] (Homo sapiens, MV4-11, 168 h), 89 nM.
With `CC(C)N(C(=O)c1cc(F)ccc1-n1cc(C2=CC3CCC(C2)N3C(=O)[C@H]2NC3CCC2CC3)c2ccncc21)C(C)C` (single isomer, unassigned) [Example 19a], the IC50 in data set [3] was 6 µM; in data set [2] it was less than 30 nM. The “hERG/MV4; 11” value in data set [3] was greater than 200.
On the same counts, the results for `CC(C)N(C(=O)c1cc(F)ccc1-n1cc(C2=CC3CCC(C2)N3C(=O)[C@H]2NC3CCC2CC3)c2ccncc21)C(C)C` (single isomer, unassigned) [Example 19b] are 4.5 µM, 140 nM and 32.
On to `CC(C)N(C(=O)c1cc(F)ccc1-n1cc(C2CCN(C(=O)[C@H]3NC4CCC3CC4)CC2)c2ccncc21)C(C)C` [Example 1, 2-(3-{1-[(3S)-2-Azabicyclo[2.2.2]octane-3-carbonyl]piperidin-4-yl}-1H-pyrrolo[2,3-c]pyridin-1-yl)-5-fluoro-N,N-di(propan-2-yl)benzamide], for which, in data set [3], it took 30 µM to reach half-maximal inhibition (IC50) and the “hERG/MV4; 11” value is 114. In addition, in data set [3] (hERG IC50 vs MV4, 11 IC50), the “gap between concentration inhibiting 50% of MV4; 11 proliferation and concentration inhibiting 50% of hERG current” value is on record as “more than 100 fold”. Further, in data set [2] (Homo sapiens, MV4-11, 168 h), the IC50 turned out to be 260 nM.
Regarding `CC(C)N(C(=O)c1cc(F)ccc1-n1cc(C2=CCCN(C(=O)[C@H]3NC4CCC3CC4)CCC2)c2ccncc21)C(C)C` [Example 14, 2-(3-{1-[(3S)-2-azabicyclo[2.2.2]octane-3-carbonyl]-1,2,3,4,7,8-hexahydroazocin-5-yl}-1H-pyrrolo[2,3-c]pyridin-1-yl)-5-fluoro-N,N-di(propan-2-yl)benzamide], in data set [3], the concentration for half-maximal inhibition (IC50) was determined as 3.2 µM and the “hERG/MV4; 11” value is 1.5. This compound returned an IC50 in data set [2] (Homo sapiens, MV4-11, 168 h) of 2200 nM.
As to “(3S)—N-[(1S)-3-(1-{4-fluoro-2-[methyl(propan-2-yl)carbamoyl]phenyl}-1H-pyrrolo[2,3-c]pyridin-3-yl)cyclohexyl]-2-azabicyclo[2.2.2]octane-3-carboxamide [Example 30]”, the “hERG/MV4; 11” value in data set [1] is on record as 13. Moreover, the IC50 in data set [2] stood at 550 nM.
